In patent publication US10004701B2, “Methods and compositions for treating infection” (UNIVERSITY OF ROCHESTER, priority 2012, dated 2018):
Counter-ions that a name gives are not always drawn. Like-named read-outs stand apart in the source and are kept apart here.

Tests used:
Assay in all cases: AK assay 384-well format, Prestwick library screening
[1] = system: A. baumannii strain 98-37-09; type: cell-based, Acinetobacter baumannii; conditions: 50 μM final drug concentration; for fold induction at 50 µM: Acinetobacter baumannii, 983709, 3 h
E. faecium = type: cell-based, Enterococcus faecium; conditions: 50 μM final drug concentration; for fold induction at 50 µM: Enterococcus faecium, 3 h
K. pneumoniae = type: cell-based, Klebsiella pneumoniae; conditions: 50 μM final drug concentration; for fold induction at 50 µM: Klebsiella pneumoniae, 3 h
E. cloacae = type: cell-based, Enterobacter cloacae; conditions: 50 μM final drug concentration; for fold induction at 50 µM: Enterobacter cloacae, 3 h
E. coli = type: cell-based, Escherichia coli; conditions: 50 μM final drug concentration; for fold induction at 50 µM: Escherichia coli, 3 h
[2] = system: S. aureus strain USA300-0114; type: cell-based, Staphylococcus aureus; conditions: 50 μM final drug concentration; for fold induction at 50 µM: Staphylococcus aureus, USA300, 3 h
P. aeruginosa = type: cell-based, Pseudomonas aeruginosa; conditions: 50 μM final drug concentration; for fold induction at 50 µM: Pseudomonas aeruginosa, 3 h
[3] = cutoff for positive-scoring molecules 3-fold increase, read-out: AK-based Prestwick Library Screening Results, A. baumannii (fold increase in extracellular AK activity)
[4] = cutoff for positive-scoring molecules 3-fold increase, read-out: AK-based Prestwick Library Screening Results, E. faecium (fold increase in extracellular AK activity)
[5] = cutoff for positive-scoring molecules 3-fold increase, read-out: AK-based Prestwick Library Screening Results, K. pneumoniae (fold increase in extracellular AK activity)
[6] = cutoff for positive-scoring molecules 3-fold increase, read-out: AK-based Prestwick Library Screening Results, E. cloacae (fold increase in extracellular AK activity)
[7] = cutoff for positive-scoring molecules 3-fold increase, read-out: AK-based Prestwick Library Screening Results, E. coli (fold increase in extracellular AK activity)
[8] = cutoff for positive-scoring molecules 3-fold increase, read-out: AK-based Prestwick Library Screening Results, S. aureus (fold increase in extracellular AK activity)
[9] = cutoff for positive-scoring molecules 3-fold increase, read-out: AK-based Prestwick Library Screening Results, P. aeruginosa (fold increase in extracellular AK activity)
[10] = 384-well format, cutoff for positive-scoring molecules 3-fold increase, read-out: AK-based Prestwick Library Screening Results, A. baumannii (increase in extracellular AK activity)
[11] = 384-well format, cutoff for positive-scoring molecules 3-fold increase, read-out: AK-based Prestwick Library Screening Results, E. faecium (increase in extracellular AK activity)
[12] = 384-well format, cutoff for positive-scoring molecules 3-fold increase, read-out: AK-based Prestwick Library Screening Results, K. pneumoniae (increase in extracellular AK activity)
[13] = 384-well format, cutoff for positive-scoring molecules 3-fold increase, read-out: AK-based Prestwick Library Screening Results, E. cloacae (increase in extracellular AK activity)
[14] = 384-well format, cutoff for positive-scoring molecules 3-fold increase, read-out: AK-based Prestwick Library Screening Results, E. coli (increase in extracellular AK activity)
[15] = 384-well format, cutoff for positive-scoring molecules 3-fold increase, read-out: AK-based Prestwick Library Screening Results, S. aureus (increase in extracellular AK activity)
[16] = 384-well format, cutoff for positive-scoring molecules 3-fold increase, read-out: AK-based Prestwick Library Screening Results, P. aeruginosa (increase in extracellular AK activity)

Compound: CCCC(=O)Nc1ncnc2c1ncn2[C@@H]1O[C@@H]2COP(=O)(O)O[C@H]2[C@H]1OC(=O)CCC [Bucladesine sodium salt]
- fold induction at 50 µM ([1]; planktonic, cutoff for positive-scoring molecules 3-fold increase, read-out: AK-based Prestwick Library Screening Results, A. baumannii (fold increase in extracellular AK activity)): 0.8
- fold induction at 50 µM (E. faecium; planktonic, cutoff for positive-scoring molecules 3-fold increase, read-out: AK-based Prestwick Library Screening Results, E. faecium (fold increase in extracellular AK activity)): 0.9
- fold induction at 50 µM (K. pneumoniae; planktonic, cutoff for positive-scoring molecules 3-fold increase, read-out: AK-based Prestwick Library Screening Results, K. pneumoniae (fold increase in extracellular AK activity)): 0.6
- fold induction at 50 µM (E. cloacae; planktonic, cutoff for positive-scoring molecules 3-fold increase, read-out: AK-based Prestwick Library Screening Results, E. cloacae (fold increase in extracellular AK activity)): 0.9
- fold induction at 50 µM (E. coli; planktonic, cutoff for positive-scoring molecules 3-fold increase, read-out: AK-based Prestwick Library Screening Results, E. coli (fold increase in extracellular AK activity)): 0.7
- fold induction at 50 µM ([2]; planktonic, cutoff for positive-scoring molecules 3-fold increase, read-out: AK-based Prestwick Library Screening Results, S. aureus (fold increase in extracellular AK activity)): 0.7
- fold induction at 50 µM (P. aeruginosa; planktonic, cutoff for positive-scoring molecules 3-fold increase, read-out: AK-based Prestwick Library Screening Results, P. aeruginosa (fold increase in extracellular AK activity)): 0.8

Compound: CN1CCc2cccc3c2[C@H]1Cc1ccc(O)c(O)c1-3.CN1CCc2cccc3c2[C@H]1Cc1ccc(O)c(O)c1-3.Cl.Cl.O
- AK-based Prestwick Library Screening Results, A. baumannii (increase in extracellular AK activity) ([1]; 384-well format, […]): 0.8
- AK-based Prestwick Library Screening Results, E. faecium (increase in extracellular AK activity) (E. faecium; 384-well format, […]): 0.8
- AK-based Prestwick Library Screening Results, K. pneumoniae (increase in extracellular AK activity) (K. pneumoniae; 384-well format, […]): 0.8
- AK-based Prestwick Library Screening Results, E. cloacae (increase in extracellular AK activity) (E. cloacae; 384-well format, […]): 0.9
- AK-based Prestwick Library Screening Results, E. coli (increase in extracellular AK activity) (E. coli; 384-well format, […]): 0.8
- AK-based Prestwick Library Screening Results, S. aureus (increase in extracellular AK activity) ([2]; 384-well format, […]): 0.9
- AK-based Prestwick Library Screening Results, P. aeruginosa (increase in extracellular AK activity) (P. aeruginosa; 384-well format, […]): 0.6

Compound: Cc1cc(CC(=O)O)n(C)c1C(=O)c1ccc(Cl)cc1 [Zomepirac sodium salt]
- fold induction at 50 µM [1, 3]: 1.1
- fold induction at 50 µM (E. faecium; [4]): 1.1
- fold induction at 50 µM (K. pneumoniae; [5]): 1
- fold induction at 50 µM (E. cloacae; [6]): 1.6
- fold induction at 50 µM (E. coli; [7]): 1.1
- fold induction at 50 µM [2, 8]: 0.9
- fold induction at 50 µM (P. aeruginosa; [9]): 0.9

Compound: CNCCC=C1c2ccccc2CCc2ccccc21 [Nortriptyline hydrochloride]
- fold induction at 50 µM [1, 10]: 0.9
- fold induction at 50 µM (E. faecium; [11]): 0.9
- fold induction at 50 µM (K. pneumoniae; [12]): 0.7
- fold induction at 50 µM (E. cloacae; [13]): 0.9
- fold induction at 50 µM (E. coli; [14]): 0.9
- fold induction at 50 µM [2, 15]: 1
- fold induction at 50 µM (P. aeruginosa; [16]): 0.8

Compound: NC(N)=NCCCCN=C(N)N [Arcaine sulfate]
- fold induction at 50 µM [1, 3]: 0.8
- fold induction at 50 µM (E. faecium; [4]): 0.6
- fold induction at 50 µM (K. pneumoniae; [5]): 0.7
- fold induction at 50 µM (E. cloacae; [6]): 1.2
- fold induction at 50 µM (E. coli; [7]): 0.7
- fold induction at 50 µM [2, 8]: 0.9
- fold induction at 50 µM (P. aeruginosa; [9]): 0.8

Compound: CO[C@H]1/C=C/O[C@@]2(C)Oc3c(C)c(O)c4c(c3C2=O)C2=NC3(CCN(CC(C)C)CC3)NC2=C(NC(=O)/C(C)=C\C=C\[C@H](C)[C@H](O)[C@@H](C)[C@@H](O)[C@@H](C)[C@H](OC(C)=O)[C@@H]1C)C4=O [Rifabutin]
- fold induction at 50 µM ([1]; planktonic A. baumannii, positive cutoff 3-fold increase, read-out: AK-based Prestwick library screening result, A. baumannii (fold increase in extracellular AK activity)): 3.3
- fold induction at 50 µM (E. faecium; planktonic E. faecium, positive cutoff 3-fold increase, read-out: AK-based Prestwick library screening result, E. faecium (fold increase in extracellular AK activity)): 1.2
- fold induction at 50 µM (K. pneumoniae; planktonic K. pneumoniae, positive cutoff 3-fold increase, read-out: AK-based Prestwick library screening result, K. pneumoniae (fold increase in extracellular AK activity)): 1.3
- fold induction at 50 µM (E. cloacae; planktonic E. cloacae, positive cutoff 3-fold increase, read-out: AK-based Prestwick library screening result, E. cloacae (fold increase in extracellular AK activity)): 1.6
- fold induction at 50 µM (E. coli; planktonic E. coli, positive cutoff 3-fold increase, read-out: AK-based Prestwick library screening result, E. coli (fold increase in extracellular AK activity)): 1.3
- fold induction at 50 µM ([2]; planktonic S. aureus, positive cutoff 3-fold increase, read-out: AK-based Prestwick library screening result, S. aureus (fold increase in extracellular AK activity)): 0.7
- fold induction at 50 µM (P. aeruginosa; planktonic P. aeruginosa, positive cutoff 3-fold increase, read-out: AK-based Prestwick library screening result, P. aeruginosa (fold increase in extracellular AK activity)): 0.6

Compound: C[N+]1(C)CCOC(O)(c2ccc(-c3ccc(C4(O)C[N+](C)(C)CCO4)cc3)cc2)C1.[Br-].[Br-] (stereo not shown) [Hemicholinium bromide]
- AK-based Prestwick Library Screening Results, A. baumannii (fold increase in extracellular AK activity) ([1]; planktonic, […]): 1.2
- AK-based Prestwick Library Screening Results, E. faecium (fold increase in extracellular AK activity) (E. faecium; planktonic, […]): 0.9
- AK-based Prestwick Library Screening Results, K. pneumoniae (fold increase in extracellular AK activity) (K. pneumoniae; planktonic, […]): 1.0
- AK-based Prestwick Library Screening Results, E. cloacae (fold increase in extracellular AK activity) (E. cloacae; planktonic, […]): 2.0
- AK-based Prestwick Library Screening Results, E. coli (fold increase in extracellular AK activity) (E. coli; planktonic, […]): 1.1
- AK-based Prestwick Library Screening Results, S. aureus (fold increase in extracellular AK activity) ([2]; planktonic, […]): 1.0
- AK-based Prestwick Library Screening Results, P. aeruginosa (fold increase in extracellular AK activity) (P. aeruginosa; planktonic, […]): 0.9

Compound: C#C[C@]1(O)CC[C@H]2[C@@H]3CCC4=CCCC[C@@H]4[C@H]3CC[C@@]21C [Lynestrenol]
- fold induction at 50 µM [1, 10]: 1.4
- fold induction at 50 µM (E. faecium; [11]): 0.9
- fold induction at 50 µM (K. pneumoniae; [12]): 0.6
- fold induction at 50 µM (E. cloacae; [13]): 0.7
- fold induction at 50 µM (E. coli; [14]): 0.7
- fold induction at 50 µM [2, 15]: 0.5
- fold induction at 50 µM (P. aeruginosa; [16]): 0.6

Compound: COc1ccc(C(=O)OC2C[C@H]3CC[C@@H](C2)N3C)cc1OC.Cl (stereo partly shown) [Convolamine hydrochloride]
- AK-based Prestwick Library Screening Results, A. baumannii (increase in extracellular AK activity) ([1]; planktonic A. baumannii, cutoff for positive-scoring molecules 3-fold increase): 1.0
- AK-based Prestwick Library Screening Results, E. faecium (increase in extracellular AK activity) (E. faecium; planktonic E. faecium, cutoff for positive-scoring molecules 3-fold increase): 0.9
- AK-based Prestwick Library Screening Results, K. pneumoniae (increase in extracellular AK activity) (K. pneumoniae; planktonic K. pneumoniae, cutoff for positive-scoring molecules 3-fold increase): 0.7
- AK-based Prestwick Library Screening Results, E. cloacae (increase in extracellular AK activity) (E. cloacae; planktonic E. cloacae, cutoff for positive-scoring molecules 3-fold increase): 1.3
- AK-based Prestwick Library Screening Results, E. coli (increase in extracellular AK activity) (E. coli; planktonic E. coli, cutoff for positive-scoring molecules 3-fold increase): 1.1
- AK-based Prestwick Library Screening Results, S. aureus (increase in extracellular AK activity) ([2]; planktonic S. aureus, cutoff for positive-scoring molecules 3-fold increase): 0.6
- AK-based Prestwick Library Screening Results, P. aeruginosa (increase in extracellular AK activity) (P. aeruginosa; planktonic P. aeruginosa, cutoff for positive-scoring molecules 3-fold increase): 0.8

Compound: Lycorine hydrochloride
- AK-based Prestwick Library Screening Results, A. baumannii (fold increase in extracellular AK activity) ([1]; planktonic, […]): 1.0
- AK-based Prestwick Library Screening Results, E. faecium (fold increase in extracellular AK activity) (E. faecium; planktonic, […]): 1.0
- AK-based Prestwick Library Screening Results, K. pneumoniae (fold increase in extracellular AK activity) (K. pneumoniae; planktonic, […]): 0.8
- AK-based Prestwick Library Screening Results, E. cloacae (fold increase in extracellular AK activity) (E. cloacae; planktonic, […]): 1.5
- AK-based Prestwick Library Screening Results, E. coli (fold increase in extracellular AK activity) (E. coli; planktonic, […]): 1.0
- AK-based Prestwick Library Screening Results, S. aureus (fold increase in extracellular AK activity) ([2]; planktonic, […]): 1.4
- AK-based Prestwick Library Screening Results, P. aeruginosa (fold increase in extracellular AK activity) (P. aeruginosa; planktonic, […]): 1.1
